Assay results from patent publication US20200297015A1, “TRYPTOPHAN DERIVATIVES AS SWEETENERS” (CHROMOCELL CORPORATION, priority 2017, published 2020).

How the values were obtained:
sweet taste = conditions: Optimising Sweet Taste in Foods, 2006; cited from earlier work
[1] = system: sweetness intensity in humans; assay: Discriminative sensory evaluation of sweetness intensity, two-alternative forced choice sip and spit (2AFC) in water; format: in vivo, human
Method: The test compounds were evaluated for sweetness intensity in a aqueous solution in humans using a two-alternative forced choice “sip and spit” method (2AFC).
Preparation of Samples for Sensory Taste Tests: • Control Sample: Sucrose (various levels) • Variant Sample: Compound 1, 5 and 8
The control samples for the discrimination taste test were prepared by dissolving the sucrose directly in water at the indicated test concentrations Variant sample containing Compound 1 was prepared by dissolving Compound i directly in water at the desired concentration. Variant sample containing Compound 5 and 8 were prepared by dissolving the respective sodium salts of the compounds directly in water (refer to Example 4).
The 2AFC test used for compound evaluation was a double blinded and randomized test where taste panelists (n≥12) evaluate a pair of sweetened solutions at a time—one sample is sweetened with sucrose (i.e. control) while the other sample is sweetened with the test compound (i.e. variant). Panelists were instructed not to eat or drink (except water) for at least 1 h before the test. During the test, panelists were instructed to sip each sample, swirl it around their mouth and then expectorate. After tasting each sample in the pair, panelists were instructed to record the sample that is “sweeter” in taste. Panelists cleansed their palates by rinsing with water, eating a cracker and waiting for an interval of about 5 minutes. All samples were tasted at ambient temperatures. Data were analyzed using binomial probabilities.

[2] = system: sweetness intensity (expert tasters); assay: Sweetness potency comparison vs D-Tryptophan, paired comparison by expert tasters; format: in vivo, human; conditions: in water, n>5
Method: The sweetness potency of the test compound was compared D-Tryptophan to understand potency differences between the test compound and non-methylated variants of D-tryptophan.
(§1) Preparation of Samples for Taste Tests: • Control Sample: 250 ppm, 500 ppm and 1000 ppm of D-Tryptophan • Variant Sample: 250 ppm, 500 ppm and 1000 ppm of Compound 5 Samples for the taste test were prepared by dissolving, both the control and variant samples, directly in water at the desired test concentrations.
Expert tasters (n>5) tasted the control and test samples in a blinded experiment and assessed sweetness intensity (at the same concentration) via paired comparison. Each taster evaluated a pair of sweetened solutions at a time—one sample is sweetened with Control compound (i.e. control) while the other sample is sweetened with the test compound (i.e. variant). After tasting each sample in the pair, tasters were instructed to record the sample that is “sweeter” in taste. All samples were tasted at ambient temperatures.

[3] = system: perception of sweet taste in humans; assay: Descriptive Analysis (DA) sensory evaluation by trained panel, aqueous matrix; format: in vivo, human; conditions: for Bitter @ 18 sec / Bitter @ 1 min / Bitter @ 1 min 30 s / Bitter @2 min / Bitter @3 min / Sweet @ 18 sec / Sweet @ 1 min / Sweet @ 1 min 30 s / Sweet @ 2 min: intensity on 15 cm scale; for Bitter @ 18 sec / Bitter @ 1 min / Bitter @ 1 min 30 s / Bitter @2 min / Bitter @3 min / Sweet @ 18 sec / Sweet @ 1 min / Sweet @ 1 min 30 s / Sweet @ 2 min / Sweet AT: in water, 500 ppm Rebaudioside M (control), 1500 ppm Compound 5 (variant), n≥12; for Sweet AT: sweet appearance time
Method: The effect of the test compound on the perception of sweet taste in an aqueous matrix was evaluated using a descriptive analysis methodology with a group of trained panelists, as follows.
Preparation of Samples for Sensory Taste Tests: • Control Sample: 500 ppm Rebaudioside M • Variant Sample: 1500 ppm Compound 5 Samples for the descriptive analysis taste test were prepared by dissolving, both the control and variant samples, directly in water at the desired test concentrations.
The taste test panelists used in Example I were selected using a sensory acuity screening program and then trained in descriptive analysis taste testing. Candidate panelists were recruited, with prescreening and personal interviews, and were assessed for their ability to detect, recognize and differentiate basic taste attributes or mixtures thereof as part of a standardized acuity test. These candidate panelists were also assessed for their innate ability to identify flavors, and to rank on intensity scales. Other senses such as smell and vision were also included as part of the assessment. Candidates also were screened for their ability to use the language to describe and articulate ideas.
The method was performed as a double blinded, randomized test, where trained Descriptive Analysis taste panelists (n≥12) profiled the maximum intensity perceived at 18 seconds, of the control sample and the variant sample for the following 3 attributes; sweet, bitter and sweet appearance time. In addition to the maximum intensity, the panelists continued to assess sweet and bitter intensity (at 1 min, 1.5 min, 2 min, and 3 min), to generate a discontinuous time scale Intensity profile (TSI) of sweet and bitter percepts to gain an understanding of the taste profile of the control and variant samples. Each panelist scored sweetness intensity on a 15 cm scale, with the control and variant sample being determined to be iso-sweet by ANOVA at 18 seconds.

[4] = system: sweetness intensity (expert tasters); assay: Reference scaling of sweetness intensity against sucrose references by expert tasters; format: in vivo, human; conditions: for Sweetness Intensity (avg): @ 1000 ppm, ranked against sucrose references (5%, 7.5%, 10%), n>5
Method: as §1
In another test, expert tasters (n>5) also tasted Compound 5 and Control Samples to a set of sucrose references (5%, 7.5%, 10%) and ranked the Test and Control samples for sweetness intensity compared to sucrose references. At the same concentration, Compound 5 achieves higher (close to 2 fold) potency compared to Control compound.

[5] = Solubility: concentrated stock by conversion to sodium salt form; format: physicochemical; conditions: for concentrated stock compared to the free base form: sodium salt form vs free base form; for concentrated solution prepared: sodium salt form, with 5.5% by weight sodium hydroxide in de-ionized water, vortex and sonication 30-120 s
From the text: Compounds 5 and 8 have been prepared at an increased concentration for commercial applications by converting them into their respective sodium salt forms. The process of converting to a salt form was obtained by dissolving the Compounds in water and adding a set quantity of sodium hydroxide or potassium hydroxide solution. A concentrated solution of 30% by weight of Compound 5 and 8 has been prepared by this method. This has been achieved by combining 30%, by weight, of Compound 5 or Compound 8 with 5.5%, by weight, of sodium hydroxide in de-ionized water. The mixture is subjected to intermittent vortex and sonication for a duration of 30-120 s. This process achieves a 300 times concentrated stock compared to the free base form of Compound 5 and 8, thereby enabling delivery of an increased concentration of the compounds in a model beverage/matrix. The sodium/potassium salt can increase solubility by changing neutral zwitterion to more hydrophilic negative charged anion.

SMILES	Bitter @ 18 sec [3]	Bitter @ 1 min [3]	Bitter @ 1 min 30 s [3]	Bitter @2 min [3]	Bitter @3 min [3]	Sweet @ 18 sec [3]	Sweet @ 1 min [3]	Sweet @ 1 min 30 s [3]	Sweet @ 2 min [3]	Sweet AT [3]	Sweetness Intensity (avg) [4] [% Sucrose equivalent]	concentrated stock compared to the free base form [5] [times]	concentrated solution prepared [5] [% by weight]	other results
N[C@H](Cc1c[nH]c2cc(Cl)ccc12)C(=O)O [6-chloro-D-tryptophan]	–	–	–	–	–	–	–	–	–	–	–	–	–	sweeter than sucrose (sweet taste): 1000 times
Cc1cccc2[nH]cc(CC(N)C(=O)O)c12 (centres unmarked) [Compound 1, 2-amino-3-(4-methyl-1H-indol-3-yl)propanoic acid]	–	–	–	–	–	–	–	–	–	–	–	–	–	Number picking Variant ([1]; Compound 1 @ 1000 ppm vs 10% Sucrose, in water, Total Number 38): 25
Cc1ccc2[nH]cc(C[C@@H](N)C(=O)O)c2c1 [Compound 5, (R)-2-amino-3-(5-methyl-1H-indol-3-yl)propanoic acid]	2.2	1.2	0.5	0.1	0.1	10.8	6.5	4.6	3	4.8	9.25	300	30	Number picking Variant ([1]; Compound 5 @ 2000 ppm (sodium salt dissolved in water) vs 12% Sucrose, Total Number 38): 26; % picking Test as “sweeter” ([2]; Compound 5 @ 250 ppm vs Control (D-Tryptophan) @ 250 ppm): 100%; % picking Test as “sweeter” ([2]; Compound 5 @ 500 ppm vs Control (D-Tryptophan) @ 500 ppm): 100%; % picking Test as “sweeter” ([2]; Compound 5 @ 1000 ppm vs Control (D-Tryptophan) @ 1000 ppm): 100%; lingering effects, sweet and bitter, as compared to the Rebaudioside M sample ([3]; by ANOVA, at multiple time points, 1500 ppm Compound 5 vs 500 ppm Rebaudioside M): significantly less; potency compared to Control compound ([4]; at the same concentration, Control = D-Tryptophan): ~2 fold
Cc1[nH]c2ccccc2c1C[C@@H](N)C(=O)O [Compound 8, (R)-2-amino-3-(2-methyl-1H-indol-3-yl)propanoic acid]	–	–	–	–	–	–	–	–	–	–	–	300	30	Number picking Variant ([1]; Compound 8 @ 3000 ppm (sodium salt dissolved in water) vs 8% Sucrose, Total Number 20): 11
N[C@H](Cc1c[nH]c2ccccc12)C(=O)O [Control, D-Tryptophan, reference compound]	–	–	–	–	–	–	–	–	–	–	5.83	–	–	–
C=C1C[C@@]23CC[C@H]4[C@@](C)(CCC[C@@]4(C)C(=O)O[C@@H]4O[C@H](CO)[C@@H](O)[C@H](O[C@@H]5O[C@H](CO)[C@@H](O)[C@H](O)[C@H]5O)[C@H]4O[C@@H]4O[C@H](CO)[C@@H](O)[C@H](O)[C@H]4O)[C@@H]2CC[C@]1(O[C@@H]1O[C@H](CO)[C@@H](O)[C@H](O[C@@H]2O[C@H](CO)[C@@H](O)[C@H](O)[C@H]2O)[C@H]1O[C@@H]1O[C@H](CO)[C@@H](O)[C@H](O)[C@H]1O)C3 [Rebaudioside M, reference compound]	3.3	2.2	1.4	0.7	0.3	10.7	7.2	5.3	3.6	5.9	–	–	–	–
